# Molecular target: T1, human bile salt export pump (BSEP) efflux transporter (Homo sapiens, UniProt O95342)
# T1 construct: purchased SOLVO Biotechnology Charles River Laboratories, Szeged, Hungary; host or cells: HEK293 (inside out membrane vesicles)
# Experiment: BSEP Vesicular Transport Inhibition Assay (IC50 determination)
# Format: biochemical
# Details: human BSEP (HEK293) vesicles; taurocholate 0.2 μM; 4 mM Mg-ATP; 10 concentrations, 1 replicate
# Experimental: The vesicular transport (VT) assays were performed using inside out membrane vesicles derived from HEK293 cells expressing the specified human bile salt export pump (BSEP) efflux transporter. The membrane vesicles were procured from SOLVO Biotechnology Charles River Laboratories, Szeged, Hungary.
# The principle of the assay relies on measuring the accumulation of substrate into inside out vesicles containing the efflux transporter. By utilizing inside out vesicles, the ATP-dependent transport of substrate is directed into the vesicular lumen, where low permeability compounds are then essentially trapped.
# For the IC50 screen inhibition assay, 10 concentrations of each compound were tested in the presence of ATP (active transport) in 1 replicate.
# The solvent control (DMSO) was tested in the presence of ATP (active transport) and in the presence of AMP (background) in 8 replicates.
# Vesicular transport inhibition assays were performed using the specific parameters for each transporter inhibition assay described in Table 53.
# Table 54 specifies treatment groups and concentration of compounds, that were examined in the vesicular transport inhibition assay. Detailed data of IC50 screen inhibition assay are shown in Table 55 and detailed data of 1 concentration inhibition assay are shown in Table 56.
# The vesicular transport inhibition assay was performed with 4 mM Mg-ATP. For the IC50 screen inhibition assay, 10 concentrations of each compound were tested in the presence of ATP in 1 replicate. For the 1 concentration inhibition assay, 1 concentration of each compound was tested in the presence of ATP (active transport) in 2 replicates. The solvent control (DMSO) was tested in the presence of 4 mM Mg-ATP (active transport) and in the presence of 4 mM AMP (background) in 8 replicates.
# The BSEP membrane vesicle suspension was mixed with the ice-cold transport buffer, then the taurocholate probe substrate solution was added (Reaction mixture, 50 μL per well). The compounds were added to the reaction mixture at 1.5-times the final assay concentration. […].
# Reaction mixtures and the start reagent (Mg-ATP or AMP in transport buffer) were pre-warmed separately for 15 minutes to reach the incubation temperature of 37° C. […]
# The reaction was initiated by the addition of the start reagent (25 μL) to the reaction mixture (diluting the reaction mixture to the final concentration). […] After the 5-minute incubation at 37° C., the reaction was stopped by the addition of 250 μL ice-cold washing mix to each well. […]
# The samples were then be transferred to a filter plate and washed with 200 μL cold washing mix5-times to remove any free compounds or taurocholate probe substrate. The amount of taurocholate probe substrate inside the filtered vesicles were determined by liquid scintillation counting. […]
# T1 sequence (O95342 whole entry): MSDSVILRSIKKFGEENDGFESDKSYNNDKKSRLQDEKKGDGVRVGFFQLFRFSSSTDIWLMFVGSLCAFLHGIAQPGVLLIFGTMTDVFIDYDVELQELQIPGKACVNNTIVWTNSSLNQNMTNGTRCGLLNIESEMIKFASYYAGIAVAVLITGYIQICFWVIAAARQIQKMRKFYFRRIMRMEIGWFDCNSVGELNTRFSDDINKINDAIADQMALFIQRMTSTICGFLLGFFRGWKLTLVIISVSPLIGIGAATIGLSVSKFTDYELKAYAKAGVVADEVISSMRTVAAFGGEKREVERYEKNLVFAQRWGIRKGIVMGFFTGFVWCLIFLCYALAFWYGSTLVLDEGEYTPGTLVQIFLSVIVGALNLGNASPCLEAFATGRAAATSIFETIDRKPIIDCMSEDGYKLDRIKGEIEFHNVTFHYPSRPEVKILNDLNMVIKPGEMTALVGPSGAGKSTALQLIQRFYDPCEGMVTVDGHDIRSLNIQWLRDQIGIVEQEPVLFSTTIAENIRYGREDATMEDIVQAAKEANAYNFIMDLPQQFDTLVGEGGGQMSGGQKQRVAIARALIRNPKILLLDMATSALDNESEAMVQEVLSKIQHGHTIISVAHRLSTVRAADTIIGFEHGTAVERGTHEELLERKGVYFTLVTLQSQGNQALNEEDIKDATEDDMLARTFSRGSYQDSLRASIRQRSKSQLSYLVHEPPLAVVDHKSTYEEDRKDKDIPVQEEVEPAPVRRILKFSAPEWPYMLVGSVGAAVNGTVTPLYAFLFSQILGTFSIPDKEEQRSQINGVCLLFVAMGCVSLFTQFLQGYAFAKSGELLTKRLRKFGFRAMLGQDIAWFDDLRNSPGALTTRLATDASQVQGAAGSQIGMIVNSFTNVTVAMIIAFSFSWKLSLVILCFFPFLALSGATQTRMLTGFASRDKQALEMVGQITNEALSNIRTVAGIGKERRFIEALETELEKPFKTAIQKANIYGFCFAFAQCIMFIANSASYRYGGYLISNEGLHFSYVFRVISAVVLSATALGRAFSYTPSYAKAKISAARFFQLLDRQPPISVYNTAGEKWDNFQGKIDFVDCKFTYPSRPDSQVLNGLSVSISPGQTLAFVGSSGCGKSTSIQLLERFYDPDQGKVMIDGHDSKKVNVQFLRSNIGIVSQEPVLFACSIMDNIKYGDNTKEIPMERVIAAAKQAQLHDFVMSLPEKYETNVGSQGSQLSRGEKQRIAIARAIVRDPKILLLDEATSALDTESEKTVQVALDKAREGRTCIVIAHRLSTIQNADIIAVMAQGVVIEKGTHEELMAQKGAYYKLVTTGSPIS
row,SMILES,BSEP Inhibition/IC50 [µM]
1,"CCN(C)S(=O)(=O)Nc1ccc(F)c(Oc2ccc3ncn(C4CC5(CCN(C6CCC(c7cc8c(cc7F)c(N7CCC(=O)NC7=O)nn8C)CC6F)CC5)C4)c(=O)c3c2)c1C#N (single isomer, unassigned) [Compound 85]",9.81

# Same assay, conditions: human BSEP (HEK293) vesicles; taurocholate 0.2 μM; 4 mM Mg-ATP; 10 concentrations, 1 replicate; in nM
row,SMILES,BSEP Inhibition/IC50
1,"CCN(C)S(=O)(=O)Nc1ccc(F)c(Oc2ccc3ncc(OCC4CCN(C5CCC(c6cc7c(cc6F)c(N6CCC(=O)NC6=O)nn7C)CC5)CC4)nc3c2)c1C#N (single isomer, unassigned) [Compound 118, 7-[2-cyano-3-[[ethyl(methyl)sulfamoyl]amino]-6-fluoro-phenoxy]-2-[[1-[4-[3-(2,4-dioxohexahydropyrimidin-1-yl)-5-fluoro-1-methyl-indazol-6-yl]cyclohexyl]-4-piperidyl]methoxy]quinoxaline]",>40000
2,"CCN(C)S(=O)(=O)Nc1ccc(F)c(Oc2ccc3ncc([C@@H]4COC5(CCN(C6CCC(c7cc8c(cc7F)c(N7CCC(=O)NC7=O)nn8C)CC6)CC5)C4)nc3c2)c1C#N (single isomer, unassigned) [Compound 54]",11010
3,"Cn1nc(N2CCC(=O)NC2=O)c2cc(F)c(N3CC4(CC(N5CCC6(CC5)CC(n5cnc7ccc(Oc8c(F)ccc(NS(=O)(=O)C9CCC9)c8C#N)cc7c5=O)C6)C4)C3)cc21 [Compound 259, N-[2-cyano-3-[3-[7-[2-[3-(2,4-dioxohexahydropyrimidin-1-yl)-5-fluoro-1-methyl-indazol-6-yl]-2-azaspiro[3.3]heptan-6-yl]-7-azaspiro[3.5]nonan-2-yl]-4-oxo-quinazolin-6-yl]oxy-4-fluoro-phenyl]cyclobutanesulfonamide]",12760
4,"CCN(C)S(=O)(=O)Nc1ccc(F)c(Oc2ccc3ncn(C4CC5(CCN(C6CCN(c7cc8c(cc7F)c(N7CCC(=O)NC7=O)nn8C)CC6)CC5)C4)c(=O)c3c2)c1C#N [Compound 156, 6-[2-cyano-3-[[ethyl(methyl)sulfamoyl]amino]-6-fluoro-phenoxy]-3-[7-[1-[3-(2,4-dioxohexahydropyrimidin-1-yl)-5-fluoro-1-methyl-indazol-6-yl]-4-piperidyl]-7-azaspiro[3.5]nonan-2-yl]-4-oxo-quinazoline]",>40000
5,"CCN(C)S(=O)(=O)Nc1ccc(F)c(Oc2ccc3ncn([C@H]4CCC5(CCN(C6CCC(c7cc8c(cc7F)c(N7CCC(=O)NC7=O)nn8C)CC6)CC5)C4)c(=O)c3c2)c1C#N (single isomer, unassigned) [Compound 33]",10060

# Source: patent US20260297060A1, “COMPOUNDS FOR THE DEGRADATION OF MUTANT BRAF” (C4 THERAPEUTICS, INC., priority 2023, published 2026)
